Results: patent publication US12702702B2, “Application of Caerin 1.1/1.9 combined with anti-CD47 antibody in preparing drug for treating melanoma” (WNL BIOMED TECH PTY. LTD., priority 2022, dated 2026)
Ends that are not written are not given here.

Key:
[1] = tested on: B16 cells; test: MTT assay for B16 cell survival; assay type: cell-based; details: B16 cells cultured overnight with F1/F3 at 0-20 μg/mL, MTT kit
Description: (§1) • 1. An MTT assay was used to detect cell survival condition: 7×10^4 B16 cells per well were cultured overnight with F1/F3 at different concentrations (0, 6, 8, 10, 12, 14, 16, 18, 20 μg/mL) in 4 duplicate wells, and the cell survival condition was detected by using an MTT kit (a product number: C0009M) and an IC50 value was calculated by drawing. Latest results of two independent experiments were shown. • 2. Detection of cell apoptosis: it was divided into a test group and a control group, and the B16 cells were cultured with a complete medium (composed of 1640 basic medium+fetal bovine serum from South American+double antibody (mixed with penicillin and streptomycin at a ratio of 1:1) at a volume ratio of 90:9:1), where Caerin 1.1/Caerin 1.9 was added to the test group with a final concentration of 10 μg/mL, and P3 was added to the control group with a same final concentration of 10 μg/mL. The cells were cultured overnight in a 5% CO2 incubator at 37° C., and their apoptosis conditions were detected by an apoptosis kit (an Annexin V-EGFP apoptosis detection kit, with a product number: C1067M). II. Experimental Results: • 1. In FIG. 1, A represented the cell survival condition at different concentrations, and B represented a calculated survival rate. […] In FIG. 2, A was a cell apoptosis distribution diagram, and B was a statistical analysis result.

[2] = tested on: B16 cells; test: Apoptosis detection (Annexin V-EGFP kit) in B16 cells; assay type: cell-based; details: 10 μg/mL, cultured overnight, versus P3 control
Description: as §1

[3] = tested on: B16 cells; test: In vivo B16 tumor model, intratumoral injection: survival time and tumor weight; set-up: species or system C57BL/6 mice; details: 30 μg injected daily for 7 days from DAY 3; alone
Description: • 1. Experiment objects: 12 C57BL/6 mice were divided into 3 groups with 4 mice in each group. • 2. Experiment method: • 2.1 Detection of tumor weight: A. Each C57BL/6 mouse was subcutaneously inoculated with 4×10^5 B16 cells, and time of tumor bearing was recorded as DAY 0. On DAY 3, the three groups were respectively injected with 100 μL of PBS solution containing 30 μg of F1/F3 (i.e., Caerin 1.1/Caerin 1.9), 100 μL of PBS solution containing 30 μg of P3, and 100 μL of PBS solution for the negative control group every day, administered for 7 consecutive days; B. a modeling method was the same as above, there were 8 mouse in each group, which were killed at DAY 13, and the tumor was taken and weighed. • 2.2 Detection of cell activity: The experimental process was the same as that in 2.1, tumor tissues were taken and treated into single cell suspensions on DAY 13 for flow staining and detected by using a flow cytometer, and selected flow antibodies were as follows: FITC-CD45.2, APC-cy7-CD3e, Percp-cy5.5-CD4, PE-cy7-CD8a, APC-cy7-B220, PE-NK1.1, PE-F4/80, Percp-cy5.5-CD11b, and FVS510 dye. […]

[4] = tested on: B16 cells; test: Flow cytometry of tumor-infiltrating immune cells after F1/F3 injection; assay type: in vivo, C57BL/6 mice; details: DAY 13, flow cytometry
Description: • 1. Experiment objects: 12 C57BL/6 mice were divided into 3 groups with 4 mice in each group. • 2. Experiment method: • 2.1 Detection of tumor weight: A. Each C57BL/6 mouse was subcutaneously inoculated with 4×10^5 B16 cells, and time of tumor bearing was recorded as DAY 0. On DAY 3, the three groups were respectively injected with 100 μL of PBS solution containing 30 μg of F1/F3 (i.e., Caerin 1.1/Caerin 1.9), 100 μL of PBS solution containing 30 μg of P3, and 100 μL of PBS solution for the negative control group every day, administered for 7 consecutive days; B. a modeling method was the same as above, there were 8 mouse in each group, which were killed at DAY 13, and the tumor was taken and weighed. • 2.2 Detection of cell activity: The experimental process was the same as that in 2.1, tumor tissues were taken and treated into single cell suspensions on DAY 13 for flow staining and detected by using a flow cytometer, and selected flow antibodies were as follows: FITC-CD45.2, APC-cy7-CD3e, Percp-cy5.5-CD4, PE-cy7-CD8a, APC-cy7-B220, PE-NK1.1, PE-F4/80, Percp-cy5.5-CD11b, and FVS510 dye. Changes of macrophage subtypes were detected, tumor tissues were taken and treated into single cell suspensions on DAY 13 for flow staining and detected by using the flow cytometer, and selected flow antibodies were as follows: FITC-CD45.2, PE-F4/80, Percp-cy5.5-CD11b, BV421-Ly6C, and FVS510 dye. • 3. In FIG. 3, A was the survival time of Caerin 1.1/Caerin 1.9 for combined treatment of melanoma-bearing mice, and B was weighted data of tumor size of each group.

[5] = tested on: B16 cells; test: MDSC and macrophage proportions in B16 tumor tissue by flow cytometry; assay type: in vivo, C57BL/6 mice; details: 30 μg F1/F3 daily for 7 days, tumor DAY 13, versus PBS
Description: (§2) • 1. Experiment objects: 6 C57BL/6 mice were divided into 2 groups with 3 mice in each group. • 2. Experimental process: Each C57BL/6 mouse was subcutaneously inoculated with 4×10^5 B16 cells, and time of tumor bearing was recorded as DAY 0. The two groups were injected with 100 μL of PBS solution containing 30 μg of F1/F3 (i.e., Caerin 1.1/Caerin 1.9) respectively on DAY 3; and the negative control group was injected with 100 μL of PBS solution every day for consecutive 7 days. B16 tumor tissues were taken and treated into single cell suspensions on DAY 13 for flow staining and detected by using a flow cytometer. Selected antibodies were as follows: FITC-CD45.2, Percp-cy5.5-CD11b, APC-Ly6G, BV421-Ly6c, FVS510 dye, and PE-F4/80. A modeling method was the same as above, splenic organs of mice were taken and processed into single cell suspensions on DAY 13, m-MDSC was sorted by using a flow cytometer, and four groups were set up: a PBS group, a PBS+GMCSF group, an F(F1/F3) group, and an F(F1/F3)+GMCSF group. The sorted cells were counted, each group was provided with two multiple wells, with 100,000 cells each well, 10 ng/ml of GMCSF was added to each group, and after three days of stimulating culture, the cells were detected by using the flow cytometer. Selected antibodies were as follows: FITC-CD45.2, Percp-cy5.5-CD11b, APC-Ly6G, BV421-Ly6c, FVS510 dye, and PE-F4/80. • 3. […]

[6] = tested on: m-MDSC; test: Sorted splenic m-MDSC, in vitro GMCSF stimulation culture; assay type: cell-based, C57BL/6 mice; details: 10 ng/ml GMCSF, three days culture, compared with the PBS group
Description: as §2

[7] = CD47 and SIRPα expression in B16 tumor tissue by flow cytometry; assay type: in vivo, C57BL/6 mice; details: DAY 13, flow cytometry
Description: (§3) • 1. Experiment objects: 21 C57BL/6 mice were divided into 3 groups with 7 mice in each group. • 2. Experiment method: A modeling method was the same as that in Experiment example 3, the experiment was divided into a PBS group, a P3 group and an F1/F3 group, tumor tissues were taken and treated into single cell suspensions on DAY 13 for flow staining and detected by using a flow cytometer, two experiments were carried out continuously, and flow antibodies were selected as follows: FITC-CD45.2, FVS510 dye, and BV421-CD47. • 3. Experimental results: This is a summary of results of two independent experiments, and the specific experimental results were shown in FIG. 9.

[8] = tested on: CD47; test: as above; assay type: in vivo, C57BL/6 mice; details: DAY 13, flow cytometry
Description: as §3

[9] = tested on: B16 cells; test: F1/F3 treatment of nude mice bearing tumor model; assay type: in vivo; details: 30 μg intratumoral for 7 days from DAY 3

Caerin 1.1/Caerin 1.9: Caerin 1.1 and Caerin 1.9 polypeptides used together, mass ratio 1:1 (chain 1 GLLSVLGSVAKHVLPHVLPHVVPVIAEHL-NH2; chain 2 GLFGVLGSIAKHVLPHVVPVIAEKL-NH2; not fully specified; ends and bridges not checked)
IC50 (IC50 half lethal dose), cell survival [1]: 11.76 µg/mL
apoptosis of B16 cells [2]: significant apoptosis-inducing effect
tumor growth in vivo (survival time, tumor weight) [3]: effectively inhibit tumor growth
number of tissue-resident macrophages for inhibiting tumor immunity [4]: decreased
expression of INFα receptors in macrophages ([4]; tumor tissue): increased
number of CD8+T cells and CD4+T cells ([4]; tumor tissue): increased
number of inflammatory macrophages for promoting tumor immunity ([4]; tumor tissue): increased
number of macrophages ([4]; tumor tissue): increased
proportion of MDSC, m-MDSC and PMN-MDSC [5]: tended to decrease
proportion of tumor macrophages in CD45.2+ cells [5]: rising trend
macrophages after GMCSF stimulus differentiation of splenic m-MDSC [6]: more macrophages
expression of SIRPα on macrophages [7]: decreased
expression of CD47 on tumor cells [8]: increased obviously
survival time of tumor-bearing nude mice [9]: significantly prolonged
